The source of these data is PubChem BioAssay (NCI).

Among the test systems are HCC-2998 colon; MOLT-4 leukemia; SK-MEL-2 melanoma; HT29 colon; COLO 205 colon; 786-0 renal; PC-3 prostate; HL-60(TB) leukemia; CAKI-1 renal; U251 CNS.
Holding throughout (assay): NCI-60 cell line screen, 48 h

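These data come from cells grown in 96-well plates and exposed to compound for 48 hours at five concentrations. Abbreviation: GI50, concentration required for 50% inhibition of growth. Definition used: TGI = concentration required for complete inhibition of growth.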

Regarding `CC(C)[C@@H](CS(=O)(=O)C(C)C)N1C(=O)[C@@](C)(CC(=O)O)C[C@H](c2cccc(Cl)c2)[C@H]1c1ccc(Cl)cc1`, the GI50 in the assay on HCC-2998 colon is 16.7 µM; with MOLT-4 leukemia it was 0.338 µM; in the assay on SK-MEL-2 melanoma, 17.6 µM; in the assay with HT29 colon, 26.6 µM; in the assay on COLO 205 colon it was 14.7 µM; in the assay with 786-0 renal, 20.8 µM. The GI50 is 5.75 µM in the assay with PC-3 prostate, 17.7 µM in the assay on HL-60(TB) leukemia, 0.378 µM in the assay with CAKI-1 renal and 7.86 µM with U251 CNS. In addition, the TGI with HCC-2998 colon was 37.7 µM; in the assay with MOLT-4 leukemia it was 11.1 µM; in the assay with SK-MEL-2 melanoma, 42.1 µM; in the assay on HT29 colon it was greater than 90.1 µM; with COLO 205 colon, 34.4 µM; with 786-0 renal, 75.2 µM. Further, the TGI with PC-3 prostate is greater than 69.3 µM; with HL-60(TB) leukemia it was 46.8 µM; with CAKI-1 renal, 32.8 µM; in the assay on U251 CNS it was 25.3 µM.
For the molecule `CC(C)(C)n1cc(-c2ccnc(NCCNS(=O)(=O)c3cccc4ccccc34)c2)c(-c2cccc(F)c2)n1`, the GI50 was 13.2 µM in the assay with HCC-2998 colon; 10 µM in the assay on MOLT-4 leukemia; 21.4 µM with SK-MEL-2 melanoma; 5.25 µM in the assay with HT29 colon; 8.98 µM in the assay on COLO 205 colon; 2.44 µM in the assay on 786-0 renal. Also, the GI50 in the assay with PC-3 prostate is 4.71 µM; with HL-60(TB) leukemia, 17.5 µM; in the assay with CAKI-1 renal, 16 µM; in the assay on U251 CNS it was 12.4 µM. The TGI in the assay with HCC-2998 colon was 37.9 µM; with MOLT-4 leukemia, greater than 100 µM; in the assay on SK-MEL-2 melanoma it was 57.9 µM; in the assay on HT29 colon, 23.9 µM; in the assay with COLO 205 colon, 43.3 µM; in the assay with 786-0 renal, 6.75 µM. Further, the TGI in the assay with PC-3 prostate turned out to be 54.4 µM; in the assay with HL-60(TB) leukemia, 44.5 µM; in the assay with CAKI-1 renal it was 30.8 µM; in the assay with U251 CNS, 33.4 µM.
Turning to `CS(=O)(=O)CS(=O)CS(=O)CS(=O)CC(NC(=O)CCC(N)C(=O)O)C(=O)O` (stereo not drawn), the TGI in the assay with HCC-2998 colon, in the assay with MOLT-4 leukemia, in the assay with SK-MEL-2 melanoma, in the assay on HT29 colon, in the assay on COLO 205 colon and with 786-0 renal was greater than 100 µM in each case. In addition, the TGI with PC-3 prostate, in the assay with HL-60(TB) leukemia, with CAKI-1 renal and in the assay on U251 CNS was greater than 100 µM each time.
For `c1ccc2c(c1)ccc1c3ccccc3ccc21`, the GI50 with HCC-2998 colon, in the assay with MOLT-4 leukemia, in the assay on SK-MEL-2 melanoma, in the assay on HT29 colon, in the assay on COLO 205 colon and in the assay with 786-0 renal was greater than 50 µM each time. Further, the GI50 in the assay with PC-3 prostate, in the assay on HL-60(TB) leukemia, in the assay on CAKI-1 renal and in the assay with U251 CNS was greater than 50 µM each time. Besides, the TGI in the assay on HCC-2998 colon, in the assay with MOLT-4 leukemia, in the assay with SK-MEL-2 melanoma, in the assay on HT29 colon, in the assay with COLO 205 colon and in the assay on 786-0 renal was greater than 50 µM throughout. Besides, the TGI in the assay with PC-3 prostate, with HL-60(TB) leukemia, in the assay with CAKI-1 renal and in the assay with U251 CNS was greater than 50 µM in each case.
Consider `CCc1nc(N)nc(N)c1-c1ccc(Cl)c(N=NN(C)C)c1`, for which the TGI in the assay on HCC-2998 colon was 62.9 µM; in the assay with MOLT-4 leukemia it was 73.5 µM; in the assay on SK-MEL-2 melanoma, 62.1 µM; with HT29 colon, greater than 91.4 µM; in the assay on COLO 205 colon, 50.7 µM; with 786-0 renal, greater than 95.7 µM. Further, the TGI is greater than 100 µM in the assay with PC-3 prostate, greater than 52.9 µM in the assay with HL-60(TB) leukemia, greater than 96.9 µM in the assay with CAKI-1 renal and greater than 100 µM in the assay on U251 CNS.
For the molecule `Oc1ccc(SCc2ccc(NCc3ccccc3)cc2)cc1`, the TGI in the assay on HCC-2998 colon was 94.7 µM; with MOLT-4 leukemia it was 39.7 µM; in the assay on SK-MEL-2 melanoma, 61.1 µM; in the assay with HT29 colon, 48.3 µM; in the assay on COLO 205 colon, greater than 100 µM; with 786-0 renal, 26.8 µM. Further, the TGI was 71.9 µM with PC-3 prostate, 68.9 µM with HL-60(TB) leukemia, greater than 100 µM with CAKI-1 renal and greater than 100 µM in the assay on U251 CNS.
As for `O=C1C(=O)c2c(nc3ncccn23)-c2ccccc21`, the GI50 is 0.408 µM in the assay on HCC-2998 colon; 0.257 µM in the assay with MOLT-4 leukemia; 0.243 µM with SK-MEL-2 melanoma; 0.838 µM with HT29 colon; 2.13 µM in the assay with COLO 205 colon; 0.304 µM in the assay on 786-0 renal. Besides, the GI50 in the assay with PC-3 prostate was 0.32 µM; with HL-60(TB) leukemia, 0.247 µM; in the assay with CAKI-1 renal, 0.64 µM; in the assay with U251 CNS it was 0.316 µM. The TGI in the assay on HCC-2998 colon was found to be 0.935 µM; with MOLT-4 leukemia it was 0.711 µM; with SK-MEL-2 melanoma, 0.532 µM; in the assay on HT29 colon, 2.29 µM; with COLO 205 colon, 4.53 µM; in the assay on 786-0 renal it was 0.766 µM. Also, the TGI in the assay on PC-3 prostate came to 1.34 µM; with HL-60(TB) leukemia, 0.64 µM; with CAKI-1 renal it was 1.9 µM; in the assay on U251 CNS, 1.16 µM.
`COP1(=S)OCC2CCC[C@@H]2O1` (stereo partly drawn): the TGI with HCC-2998 colon, in the assay with MOLT-4 leukemia, in the assay on SK-MEL-2 melanoma, with HT29 colon, with COLO 205 colon and with 786-0 renal was greater than 100 µM in each case. The TGI with PC-3 prostate, with HL-60(TB) leukemia, in the assay with CAKI-1 renal and in the assay on U251 CNS was greater than 100 µM throughout.
Turning to `C=CCNc1cccc2c1C(=O)c1ccccc1C2(O)CC=C` (stereo not drawn), the GI50 is 20.1 µM in the assay on HCC-2998 colon; 41.8 µM in the assay on MOLT-4 leukemia; 20.7 µM with SK-MEL-2 melanoma; 16.8 µM in the assay with HT29 colon; 16.2 µM with COLO 205 colon; 19.8 µM in the assay with 786-0 renal. Also, the GI50 in the assay on PC-3 prostate is 26.6 µM; with HL-60(TB) leukemia, 47.2 µM; in the assay with U251 CNS, 17.4 µM. For the same molecule, the TGI is 37.4 µM with HCC-2998 colon; greater than 100 µM with MOLT-4 leukemia; 47.6 µM in the assay with SK-MEL-2 melanoma; 36.7 µM with HT29 colon; 36.1 µM with COLO 205 colon; 36.9 µM in the assay on 786-0 renal. Moreover, the TGI in the assay with PC-3 prostate was 73.8 µM; with HL-60(TB) leukemia it was greater than 100 µM; in the assay with U251 CNS it was 39.2 µM.
